From patent US11596692B1 (Incyte Corporation, priority 2018, dated 2023)
Read-outs that look alike come from different tables or passages of the source.

System: IRF3
Experiment: IRF3 activation assay in THP-1 Dual cells
Type: cell-based
Conditions: Homo sapiens, read-out: THP1 IRF3 EC50
Procedure: THP-1 Dual Cells (Invivogen) were maintained in RPMI1640 medium with addition of 10% FBS, 100 μg/ml zeocin, 10 μg/ml blasticidin. Cells were added in a 96-well flat bottom assay plate at 100,000 per well in 100 μL complete RPMI medium. Test compounds were prepared by serial dilution in complete RPMI medium and 100 μL test compounds were transferred to each corresponding well. The assay plate was incubated at 37° C., 5% CO2 for 24 hours. After the overnight incubation, 20 μL of the culture supernatants were collected, followed by addition of 180 μL of QUANTI-Blue (Invivogen) to assess IRF3 activity. The amount of IRF3 activation was assessed by reading the absorbance at 620-655 nm with a microplate reader 2 hours later. The culture supernatant from the untreated THP-1 cells was used as the negative control. EC50 determination was performed by fitting the curve of percent control activity versus the log of the compound concentration using the GraphPad Prism 6.0 software.

Structure (SMILES)	EC50 (THP-1, Table 4C)	EC50 (THP-1, Table 4A)	EC50 (THP-1, Table 4B)
CCn1nc(C)cc1C(=O)Nc1nc2cc(C(N)=O)c3ccoc3c2n1C/C=C/Cn1c2nc(-c3cc(C)nn3CC)ncc2c2cc(C(N)=O)cc(OCCCOC)c21 [Example S68, (E)-1-(4-(6-carbamoyl-2-(1-ethyl-3-methyl-1H-pyrazol-5-yl)-8-(3-methoxypropoxy)-9H-pyrimido[4,5-b]indol-9-yl)but-2-en-1-yl)-2-(1-ethyl-3-methyl-1H-pyrazole-5-carboxamido)-1H-benzofuro[6,7-d]imidazole-5-carboxamide]	–	≤ 100 nM	–
CCn1nc(C)cc1C(=O)Nc1nc2cc(C(N)=O)cc(C)c2n1C/C=C/Cn1c2ccc(C(N)=O)cc2c2cnc(-c3cc(C)nn3CC)nc21 [Example S1, (E)-9-(4-(5-carbamoyl-2-(1-ethyl-3-methyl-1H-pyrazole-5-carboxamido)-7-methyl-1H-benzo[d]imidazol-1-yl)but-2-enyl)-2-(1-ethyl-3-methyl-1H-pyrazol-5-yl)-9H-pyrimido[4,5-b]indole-6-carboxamide]	50 to 200 nM	500 to 1000 nM	< 1000 nM
CCn1nc(C)cc1C(=O)Nc1nc2cc(C(N)=O)cc(C)c2n1C/C=C/Cn1c2ccc(C(N)=O)cc2c2cnc(-c3ccnn3CC)nc21 [Example S7, (E)-9-(4-(5-carbamoyl-2-(1-ethyl-3-methyl-1H-pyrazole-5-carboxamido)-7-methyl-1H-benzo[d]imidazol-1-yl)but-2-enyl)-2-(1-ethyl-1H-pyrazol-5-yl)-9H-pyrimido[4,5-b]indole-6-carboxamide]	200 to 500 nM	100 to 500 nM	< 1000 nM
CCn1nc(C)cc1C(=O)Nc1nc2cc(C(N)=O)cc(OCCCN)c2n1C/C=C/Cn1c2nc(-c3cc(C)nn3CC)ncc2c2cc(C(N)=O)cc(OCCCOC)c21 [Example S38, (E)-9-(4-(7-(3-aminopropoxy)-5-carbamoyl-2-(1-ethyl-3-methyl-1H-pyrazole-5-carboxamido)-1H-benzo[d]imidazol-1-yl)but-2-en-1-yl)-2-(1-ethyl-3-methyl-1H-pyrazol-5-yl)-8-(3-methoxypropoxy)-9H-pyrimido[4,5-b]indole-6-carboxamide]	500 to 1000 nM	–	–
CCn1nc(C)cc1C(=O)Nc1nc2cc(C(N)=O)cc(OCCCNC(=O)[C@H](CC(=O)O)NC(=O)[C@H](CC(=O)O)NC(=O)[C@H](CCCNC(=N)N)NC(=O)[C@@H](N)CC(=O)O)c2n1C/C=C/Cn1c2nc(-c3cc(C)nn3CC)ncc2c2cc(C(N)=O)cc(OCCCOC)c21 [Example S42]	200 to 500 nM	–	–

The next lines start with the values.

EC50 (THP-1, Table 4C)	EC50 (THP-1, Table 4A)	EC50 (THP-1, Table 4B)	Structure (SMILES)
≤ 50 nM	–	–	CCn1nc(C)cc1C(=O)Nc1nc2cc(C(N)=O)cc(OCCOCCOCCC(=O)O)c2n1C/C=C/Cn1c2nc(-c3cc(C)nn3CC)ncc2c2cc(C(N)=O)cc(OCCCOC)c21 [Example S49, (E)-3-(2-(2-((5-carbamoyl-1-(4-(6-carbamoyl-2-(1-ethyl-3-methyl-1H-pyrazol-5-yl)-8-(3-methoxypropoxy)-9H-pyrimido[4,5-b]indol-9-yl)but-2-en-1-yl)-2-(1-ethyl-3-methyl-1H-pyrazole-5-carboxamido)-1H-benzo[d]imidazol-7-yl)oxy)ethoxy)ethoxy)propanoic acid]
≤ 50 nM	–	–	CCn1nc(C)cc1C(=O)Nc1nc2cc(C(N)=O)cc(OCCCC#N)c2n1C/C=C/Cn1c2nc(-c3cc(C)nn3CC)ncc2c2cc(C(N)=O)cc(OCCCOC)c21 [Example S34, (E)-9-(4-(5-carbamoyl-7-(3-cyanopropoxy)-2-(1-ethyl-3-methyl-1H-pyrazole-5-carboxamido)-1H-benzo[d]imidazol-1-yl)but-2-en-1-yl)-2-(1-ethyl-3-methyl-1H-pyrazol-5-yl)-8-(3-methoxypropoxy)-9H-pyrimido[4,5-b]indole-6-carboxamide]
–	≤ 100 nM	–	CCn1nc(C)cc1C(=O)Nc1nc2cc(C(N)=O)cc(C)c2n1C/C=C/Cn1c(NC(=O)c2cc(C)nn2CC)nc2cc(C(N)=O)c3ccoc3c21 [Example S31, (E)-1-(4-(5-carbamoyl-2-(1-ethyl-3-methyl-1H-pyrazole-5-carboxamido)-7-methyl-1H-benzo[d]imidazol-1-yl)but-2-en-1-yl)-2-(1-ethyl-3-methyl-1H-pyrazole-5-carboxamido)-1H-benzofuro[6,7-d]imidazole-5-carboxamide]
